# Measured values taken from US12655116B2, “Substituted isophthalic acid diamides” (Bayer Aktiengesellschaft, priority 2020, dated 2026).
# Key:
# [1] = tested on: SETVI; test: Post-emergence herbicidal action against SETVI; type: in vivo, Setaria viridis
# In short: (§1)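 Herbicidal action is a visual percentage rating (0% = as untreated control, 100% = plants dead) made roughly 3 weeks after treatment. Plants were grown in sandy loam in the greenhouse and treated at the one-leaf stage, 2 to 3 weeks post-sowing. Treatment was a foliar spray of wettable-powder or emulsion-concentrate formulations at 600 to 800 l/ha water plus 0.2% wetting agent.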
# [2] = tested on: AMARE; test: Post-emergence herbicidal action against AMARE; type: in vivo, Amaranthus retroflexus; conditions: 20 g/ha, visual assessment about 3 weeks after treatment, 100% = plants have died, 0% = like control plants
# In short: as §1
# [3] = tested on: STEME; test: Pre-emergence herbicidal action against STEME; type: in vivo, Stellaria media
# In short: (§2)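 Sandy loam pots, seeds covered with soil, then surface-treated with WP or EC formulations at 600–800 l/ha water plus 0.2% wetting agent. Greenhouse, 3 weeks. Percent damage vs untreated controls.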
# [4] = tested on: MATIN; test: Post-emergence herbicidal action against MATIN; type: in vivo, Matricaria inodora; conditions: dosage 20 g/ha
# In short: as §1
# [5] = tested on: STEME; test: Post-emergence herbicidal action against STEME; type: in vivo, Stellaria media
# Procedure: Seeds of monocotyledonous and dicotyledonous weed and crop plants are laid out in sandy loam soil in wood-fiber pots, covered with soil and cultivated in a greenhouse under good growth conditions. 2 to 3 weeks after sowing, the test plants are treated at the one-leaf stage. The compounds of the invention, formulated in the form of wettable powders (WP) or as emulsion concentrates (EC), are then sprayed onto the green parts of the plants in the form of an aqueous suspension or emulsion at a water application rate equivalent to 600 to 800 l/ha, with addition of 0.2% wetting agent. After the test plants have been left to stand in the greenhouse under optimal growth conditions for about 3 weeks, the action of the preparations is assessed visually in comparison to untreated controls (herbicidal action in percent (%): 100% activity=the plants have died, 0% activity=like control plants). […] The tables below illustrate, in an illustrative manner, the post-emergence herbicidal action of the compounds of the invention, the herbicidal activity being stated in percent.
# [6] = tested on: SETVI; test: Pre-emergence herbicidal action against SETVI; type: in vivo, Setaria viridis; conditions: dosage 80 g/ha
# In short: as §2
# [7] = tested on: ABUTH; test: Post-emergence herbicidal action against ABUTH; type: in vivo, Abutilon theophrasti; conditions: visual assessment about 3 weeks after treatment vs untreated controls
# In short: as §1
# [8] = tested on: VIOTR; test: Pre-emergence herbicidal action against VIOTR; type: in vivo, Viola tricolor
# In short: as §2
# [9] = tested on: AMARE; test: Pre-emergence herbicidal action against AMARE; type: in vivo, Amaranthus retroflexus
# In short: as §2
# [10] = tested on: AVEFA; test: Pre-emergence herbicidal action against AVEFA; type: in vivo, Avena fatua; conditions: 80 g/ha, pre-emergence
# In short: as §2
# [11] = tested on: DIGSA; test: Post-emergence herbicidal action against DIGSA; type: in vivo, Digitaria sanguinalis; conditions: for Post-emergence action against DIGSA in %: 5 g/ha; for Post-emergence action against DIGSA: 20 g/ha
# In short: as §1
# [12] = tested on: MATIN; test: Pre-emergence herbicidal action against MATIN; type: in vivo, Matricaria inodora
# In short: as §2
# [13] = tested on: PHBPU; test: Post-emergence herbicidal action against PHBPU; type: in vivo, Pharbitis purpurea
# In short: as §1
# [14] = tested on: VERPE; test: Post-emergence herbicidal action against VERPE; type: in vivo, Veronica persica; conditions: 20 g/ha
# In short: as §1
# [15] = tested on: VERPE; test: Pre-emergence herbicidal action against VERPE; type: in vivo, Veronica persica; conditions: dosage 80 g/ha
# In short: as §2
# [16] = tested on: VIOTR; test: Post-emergence herbicidal action against VIOTR; type: in vivo, Viola tricolor
# In short: as §1
# [17] = tested on: ABUTH; test: Pre-emergence herbicidal action against ABUTH; type: in vivo, Abutilon theophrasti; conditions: for Pre-emergence action against ABUTH (herbicidal activity): 80 g/ha, scored visually after 3 weeks vs untreated controls (100% = plants have died, 0% = like control plants); for Pre-emergence action against ABUTH (herbicidal activity in percent): dosage 20 g/ha, scored visually after 3 weeks vs untreated controls, 100% = plants have died, 0% = like control plants
# In short: as §2
# [18] = tested on: ALOMY; test: Post-emergence herbicidal action against ALOMY; type: in vivo, Alopecurus myosuroides; conditions: dosage 20 g/ha, visual assessment about 3 weeks after treatment vs untreated controls
# In short: as §1
# [19] = tested on: ECHCG; test: Pre-emergence herbicidal action against ECHCG; type: in vivo, Echinochloa crus-galli; conditions: 80 g/ha
# In short: as §2
# [20] = tested on: ECHCG; test: Post-emergence herbicidal action against ECHCG; type: in vivo, Echinochloa crus-galli
# In short: as §1
# [21] = tested on: DIGSA; test: Pre-emergence herbicidal action against DIGSA; type: in vivo, Digitaria sanguinalis
# In short: as §2
# [22] = tested on: POLCO; test: Pre-emergence herbicidal action against POLCO; type: in vivo, Polygonum convolvulus; conditions: dosage 80 g/ha
# In short: as §2
# [23] = tested on: ALOMY; test: Pre-emergence herbicidal action against ALOMY; type: in vivo, Alopecurus myosuroides; conditions: 80 g/ha, pre-emergence, scored visually after 3 weeks vs untreated controls (100% = plants have died, 0% = like control plants)
# In short: as §2
# [24] = tested on: AVEFA; test: Post-emergence herbicidal action against AVEFA; type: in vivo, Avena fatua; conditions: 20 g/ha, visual assessment about 3 weeks after treatment, 100% = plants have died, 0% = like control plants
# In short: as §1
# [25] = 20 g/ha, scored visually after 3 weeks vs untreated controls, 100% = plants have died, 0% = like control plants
# [26] = 80 g/ha, scored visually after 3 weeks vs untreated controls (100% = plants have died, 0% = like control plants)
SMILES,Post-emergence action at 20 g/ha against AMARE in % [2] [%],Pre-emergence action against STEME in % ([3]; dosage 20 g/ha) [%],Pre-emergence action against STEME in % ([3]; dosage 80 g/ha) [%],Post-emergence action against MATIN in % [4] [%],Post-emergence action against STEME in % ([5]; 20 g/ha) [%],Pre-emergence action against SETVI in % [6] [%],Post-emergence action against ABUTH in % ([7]; dosage 5 g/ha) [%],Post-emergence action against ABUTH in % ([7]; dosage 20 g/ha) [%],Pre-emergence action against VIOTR in % ([8]; dosage 20 g/ha) [%],Pre-emergence action against VIOTR in % ([8]; dosage 80 g/ha) [%],"Pre-emergence action against AMARE in % [9, 25] [%]","Pre-emergence action against AMARE in % [9, 26] [%]",Post-emergence action against DIGSA in % [11] [%],Post-emergence action against DIGSA [11] [%],Pre-emergence action against MATIN in % ([12]; dosage 20 g/ha) [%],Pre-emergence action against MATIN in % ([12]; dosage 80 g/ha) [%],Post-emergence action against VIOTR in % ([16]; 20 g/ha) [%],Pre-emergence action against ABUTH (herbicidal activity) [17] [%],Pre-emergence action against ABUTH (herbicidal activity in percent) [17] [%],Post-emergence action against ALOMY in % [18] [%],further results
CNC(=O)c1c(C(F)(F)F)ccc(C(=O)Nc2nnco2)c1SC [Example 5-58],90,100,100,80,90,100,90,90,90,100,100,100,90,100,90,100,80,100,90,80,Post-emergence action against SETVI in % ([1]; dosage 5 g/ha): 80%; Post-emergence action against SETVI in % ([1]; dosage 20 g/ha): 100%; Post-emergence action against STEME in % ([5]; dosage 5 g/ha): 90%; Pre-emergence action against AVEFA in % [10]: 80%; Post-emergence action against PHBPU in % ([13]; dosage 5 g/ha): 80%; Post-emergence action against PHBPU in % ([13]; dosage 20 g/ha): 90%; Post-emergence action against VERPE in % [14]: 80%; Pre-emergence action against VERPE in % [15]: 80%; Post-emergence action against VIOTR in % ([16]; 5 g/ha): 80%; Pre-emergence action against ECHCG in % [19]: 90%; Post-emergence action against ECHCG in % ([20]; dosage 5 g/ha): 80%; Post-emergence action against ECHCG in % ([20]; dosage 20 g/ha): 90%; Pre-emergence action against DIGSA in % ([21]; dosage 20 g/ha): 90%; Pre-emergence action against DIGSA in % ([21]; dosage 80 g/ha): 100%
Cc1nnc(NC(=O)c2ccc(C(F)(F)F)c(C(=O)NC3CC3)c2Cl)o1 [Example 6-118],100,90,100,80,100,100,80,90,90,90,80,100,100,100,90,100,80,100,100,80,Pre-emergence action against POLCO in % [22]: 80%; Pre-emergence action against ALOMY (herbicidal activity) [23]: 100%; Pre-emergence action against AVEFA in % [10]: 90%; Pre-emergence action against ECHCG in % [19]: 100%; Post-emergence action against ECHCG in % ([20]; dosage 20 g/ha): 90%; Pre-emergence action against DIGSA in % ([21]; dosage 20 g/ha): 90%; Pre-emergence action against DIGSA in % ([21]; dosage 80 g/ha): 100%
CCNC(=O)c1c(C(F)F)ccc(C(=O)Nc2nnco2)c1SC [Example 5-75],90,100,100,80,100,100,90,90,100,100,100,100,90,90,80,100,80,100,100,80,Post-emergence action against SETVI in % ([1]; dosage 5 g/ha): 80%; Post-emergence action against SETVI in % ([1]; dosage 20 g/ha): 80%; Post-emergence action against STEME in % ([5]; dosage 5 g/ha): 90%; Post-emergence action at 20 g/ha against AVEFA in % [24]: 80%; Post-emergence action against PHBPU in % ([13]; dosage 5 g/ha): 80%; Post-emergence action against PHBPU in % ([13]; dosage 20 g/ha): 80%; Pre-emergence action against VERPE in % [15]: 90%; Pre-emergence action against ECHCG in % [19]: 100%; Post-emergence action against ECHCG in % ([20]; dosage 5 g/ha): 80%; Post-emergence action against ECHCG in % ([20]; dosage 20 g/ha): 80%; Pre-emergence action against DIGSA in % ([21]; dosage 20 g/ha): 100%; Pre-emergence action against DIGSA in % ([21]; dosage 80 g/ha): 100%
